Here are results for six compounds from patent US20100286254A1 (ANTISOMA RESEARCH LIMITED, priority 2007, published 2010).

Where a name gives a salt, the structure may show the parent alone.

Data set [1] relates to human tumours. The conditions noted are these: monotherapy, cited from earlier work.
Data set [2] deals with syngeneic murine tumours or human tumour xenografts. To be noted: mouse, in vivo; cited from earlier work.
Data set [3] can be described thus: Hygroscopicity. Format: physicochemical. To be noted: sodium salt.
Data set [4] in a line: Storage under controlled relative humidity (solid form stability). Format: physicochemical. The source says:
A high relative humidity is here defined as a relative humidity of about 70 to 90%. […] In particular, the water content can be well controlled and remains constant, over time.

A short description of data set [5]: Dynamic Vapour Sorption (DVS) experiment. Type of data set: physicochemical. The conditions noted are these: 25° C. As for the experimental part:
DVS: Dynamic vapour sorption measurements were carried out with an instrument of Surface Measurement Systems (http:www.smsuk.co.uk). The weight change of the investigated sample is monitored while the relative humidity is changed over a range from 0% r.h. to 95% r.h. at a change rate of 5% per hour.
About 10 mg of a mixture of forms B and C is placed into a suitable sample pan and investigated with a dynamic vapour sorption apparatus of Surface Measurement Systems, DVS-1 (series 1000) using software version DVS win SP2, V3.01 at 25° C. The initial relative humidity is 50% and the initial mass is 100%, thereafter the humidity is increased to 95% and kept at this level for 2 hours, then the humidity is decreased to 0%, and kept at 0% during 10 hours, then raised again to 95%. Change rates are always 5% per hour.

Where [6] appears, read: 52% relative humidity, ambient temperature, about two weeks.

On to `Cc1ccc2c(=O)c3cccc(CC(=O)O)c3oc2c1C` [DMXAA], for which the tumour responses entry in data set [1] (phase I trials) is reported as “few tumour responses were achieved”. The tumour blood flow result in data set [1] (well-tolerated doses, dynamic MRI) is reported as “significant reduction in tumour blood flow”. The “antivascular activity, tumour blood flow” value in data set [2] is listed as “prolonged inhibition of tumour blood flow leading to extensive regions of haemorrhagic necrosis”.

Regarding `Cc1ccc2c(=O)c3cccc(CC(=O)O)c3oc2c1C` [amorphous DMXAA sodium salt, DMXAA sodium salt, reference compound], in data set [3], the hygroscopicity entry is recorded as “very hygroscopic”.

For `Cc1ccc2c(=O)c3cccc(CC(=O)O)c3oc2c1C` [form E, DMXAA sodium salt], the hygroscopicity entry in data set [3] is “hygroscopic”.

In the case of `Cc1ccc2c(=O)c3cccc(CC(=O)O)c3oc2c1C` [form F, DMXAA sodium salt], in data set [4] (setting [6]), the “change of the crystal form on storage” value is recorded as “did not lead to a change of the crystal form” and the “water content after storage” value is recorded as “about 3%”. Besides, the “form conversion on storage” value in data set [4] (75% relative humidity at 40° C.) is “transforms into form B within a few days”. Moreover, in data set [4] (open container, 75% relative humidity, about 34 hours), the “form conversion on storage” value is listed as “transformed into form B”. In addition, in data set [3], the hygroscopicity result was “hygroscopic”.

As to `Cc1ccc2c(=O)c3cccc(CC(=O)O)c3oc2c1C` [form L, DMXAA sodium salt], the hygroscopicity entry in data set [3] is recorded as “hygroscopic”.

Take `Cc1ccc2c(=O)c3cccc(CC(=O)[O-])c3oc2c1C.[Na+]` [mixture of forms B and C, DMXAA sodium salt]: the water adsorbed entry in data set [5] (at 95% r.h.) is given as “about 1%”. Further, in data set [5] (scanning r.h. to 0%), the water release result is reported as “all the water is released”.
